Active and inactive are the calls of the source. The rule behind the calls is not given here.
Tests used:
[1] = target: T1, Lysine-specific demethylase 4A (Homo sapiens, UniProt O75164); experiment: Inhibition of C-terminal FLAG-tagged human KDM4A expressed in Escherichia coli pre-incubated for 4 hrs before substrate addition and measured after 1 hr by AlphaScreen assay
T1 sequence (O75164 whole entry): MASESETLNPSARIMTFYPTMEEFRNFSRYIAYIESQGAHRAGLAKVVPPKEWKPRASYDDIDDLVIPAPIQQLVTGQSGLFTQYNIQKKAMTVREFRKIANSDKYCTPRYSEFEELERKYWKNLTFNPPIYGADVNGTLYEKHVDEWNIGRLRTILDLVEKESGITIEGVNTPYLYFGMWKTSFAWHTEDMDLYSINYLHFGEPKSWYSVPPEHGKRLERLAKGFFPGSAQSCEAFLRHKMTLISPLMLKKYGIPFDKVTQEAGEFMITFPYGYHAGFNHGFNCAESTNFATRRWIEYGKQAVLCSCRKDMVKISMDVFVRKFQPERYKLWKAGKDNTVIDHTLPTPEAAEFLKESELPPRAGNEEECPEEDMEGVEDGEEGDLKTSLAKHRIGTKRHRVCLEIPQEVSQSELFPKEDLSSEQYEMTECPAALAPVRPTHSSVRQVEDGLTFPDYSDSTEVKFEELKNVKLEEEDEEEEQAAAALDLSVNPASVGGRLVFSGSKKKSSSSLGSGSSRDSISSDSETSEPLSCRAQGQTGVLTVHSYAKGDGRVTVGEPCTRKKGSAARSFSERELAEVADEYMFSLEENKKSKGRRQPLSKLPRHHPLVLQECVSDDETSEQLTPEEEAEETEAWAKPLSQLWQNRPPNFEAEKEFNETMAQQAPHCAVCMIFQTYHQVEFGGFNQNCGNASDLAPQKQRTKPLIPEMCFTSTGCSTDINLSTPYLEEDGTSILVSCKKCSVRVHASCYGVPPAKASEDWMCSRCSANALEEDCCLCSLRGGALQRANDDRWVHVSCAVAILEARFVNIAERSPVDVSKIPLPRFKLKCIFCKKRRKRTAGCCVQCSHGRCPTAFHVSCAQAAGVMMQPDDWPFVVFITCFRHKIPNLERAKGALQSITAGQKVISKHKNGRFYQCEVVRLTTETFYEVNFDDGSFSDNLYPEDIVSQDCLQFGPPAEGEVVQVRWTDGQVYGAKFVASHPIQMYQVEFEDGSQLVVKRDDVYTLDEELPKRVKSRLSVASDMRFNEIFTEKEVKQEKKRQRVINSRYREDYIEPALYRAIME

[2] = target: T2, Lysine-specific demethylase 5A (Homo sapiens, UniProt P29375); experiment: Inhibition of C-terminal FLAG-tagged human KDM5A expressed in Sf9 cells at 50 uM pre-incubated for 4 hrs before substrate addition and measured after 1 hr by AlphaScreen assay
[3] = target: T2, Lysine-specific demethylase 5A; experiment: Inhibition of KDM5A in human A549 cells assessed as H3K4me3/H3 ratio level at 250 uM levels incubated for 24 hrs by Western blot analysis relative to control; type: cell-based
[4] = target: T2, Lysine-specific demethylase 5A; experiment: Inhibition of KDM5A in human A549 cells assessed as H3K4me3/H3 ratio level at 100 uM levels incubated for 24 hrs by Western blot analysis relative to control; type: cell-based
[5] = target: Histone deacetylase 1 (Homo sapiens) (UniProt Q13547); experiment: Inhibition of C-terminal GST-tagged full-length human HDAC1 expressed in Sf9 cells at 100 uM pre-incubated for 10 mins before substrate addition and measured after 20 mins by fluorescence assay
[6] = tested on: A549; experiment: Cytotoxicity in human A549 cells assessed as reduction in cell viability at 250 uM; type: functional, cell-based
[7] = target: T2, Lysine-specific demethylase 5A; experiment: Inhibition of C-terminal FLAG-tagged human KDM5A expressed in Sf9 cells at 200 uM pre-incubated for 15 mins before H3(1-21)K4me3 peptide substrate addition in presence of 50 uM alpha-KG by formaldehyde dehydrogenase coupled demethylase assay
[8] = target: T2, Lysine-specific demethylase 5A; experiment: Inhibition of C-terminal FLAG-tagged human KDM5A expressed in Sf9 cells at 200 uM pre-incubated for 15 mins before H3(1-21)K4me3 peptide substrate addition in presence of 1000 uM alpha-KG by formaldehyde dehydrogenase coupled demethylase assay
[9] = target: T2, Lysine-specific demethylase 5A; experiment: Inhibition of KDM5A in human A549 cells assessed as H3K4me3/H3 ratio level at 50 uM levels incubated for 24 hrs by Western blot analysis relative to control; type: cell-based
[10] = target: T3, Lysine-specific demethylase 4A (Homo sapiens) (UniProt O75164); experiment: Inhibition of C-terminal FLAG-tagged human KDM4A expressed in Escherichia coli at 50 uM pre-incubated for 4 hrs before substrate addition and measured after 1 hr by AlphaScreen assay
T3 sequence (whole entry): T1 sequence (O75164 whole entry)

[11] = target: Lysine-specific demethylase 6B (Homo sapiens) (UniProt O15054); experiment: Inhibition of C-terminal FLAG-tagged human KDM6B expressed in expressed in Sf9 cells at 50 uM pre-incubated for 4 hrs before substrate addition and measured after 1 hr by AlphaScreen assay
[12] = target: T2, Lysine-specific demethylase 5A; experiment: Inhibition of C-terminal FLAG-tagged human KDM5A expressed in Sf9 cells pre-incubated for 4 hrs before substrate addition and measured after 1 hr by AlphaScreen assay
[13] = target: T2, Lysine-specific demethylase 5A; experiment: Inhibition of KDM5A in human A549 cells assessed as increase in H3K4me3/H3 ratio level at 50 to 250 uM levels incubated for 24 hrs by Western blot analysis relative to control; type: cell-based
[14] = target: T2, Lysine-specific demethylase 5A; experiment: Inhibition of KDM5A in human A549 cells assessed as increase in H3K4me3/H3 levels incubated for 24 hrs by Western blot analysis; type: cell-based

T2 sequence (P29375 whole entry): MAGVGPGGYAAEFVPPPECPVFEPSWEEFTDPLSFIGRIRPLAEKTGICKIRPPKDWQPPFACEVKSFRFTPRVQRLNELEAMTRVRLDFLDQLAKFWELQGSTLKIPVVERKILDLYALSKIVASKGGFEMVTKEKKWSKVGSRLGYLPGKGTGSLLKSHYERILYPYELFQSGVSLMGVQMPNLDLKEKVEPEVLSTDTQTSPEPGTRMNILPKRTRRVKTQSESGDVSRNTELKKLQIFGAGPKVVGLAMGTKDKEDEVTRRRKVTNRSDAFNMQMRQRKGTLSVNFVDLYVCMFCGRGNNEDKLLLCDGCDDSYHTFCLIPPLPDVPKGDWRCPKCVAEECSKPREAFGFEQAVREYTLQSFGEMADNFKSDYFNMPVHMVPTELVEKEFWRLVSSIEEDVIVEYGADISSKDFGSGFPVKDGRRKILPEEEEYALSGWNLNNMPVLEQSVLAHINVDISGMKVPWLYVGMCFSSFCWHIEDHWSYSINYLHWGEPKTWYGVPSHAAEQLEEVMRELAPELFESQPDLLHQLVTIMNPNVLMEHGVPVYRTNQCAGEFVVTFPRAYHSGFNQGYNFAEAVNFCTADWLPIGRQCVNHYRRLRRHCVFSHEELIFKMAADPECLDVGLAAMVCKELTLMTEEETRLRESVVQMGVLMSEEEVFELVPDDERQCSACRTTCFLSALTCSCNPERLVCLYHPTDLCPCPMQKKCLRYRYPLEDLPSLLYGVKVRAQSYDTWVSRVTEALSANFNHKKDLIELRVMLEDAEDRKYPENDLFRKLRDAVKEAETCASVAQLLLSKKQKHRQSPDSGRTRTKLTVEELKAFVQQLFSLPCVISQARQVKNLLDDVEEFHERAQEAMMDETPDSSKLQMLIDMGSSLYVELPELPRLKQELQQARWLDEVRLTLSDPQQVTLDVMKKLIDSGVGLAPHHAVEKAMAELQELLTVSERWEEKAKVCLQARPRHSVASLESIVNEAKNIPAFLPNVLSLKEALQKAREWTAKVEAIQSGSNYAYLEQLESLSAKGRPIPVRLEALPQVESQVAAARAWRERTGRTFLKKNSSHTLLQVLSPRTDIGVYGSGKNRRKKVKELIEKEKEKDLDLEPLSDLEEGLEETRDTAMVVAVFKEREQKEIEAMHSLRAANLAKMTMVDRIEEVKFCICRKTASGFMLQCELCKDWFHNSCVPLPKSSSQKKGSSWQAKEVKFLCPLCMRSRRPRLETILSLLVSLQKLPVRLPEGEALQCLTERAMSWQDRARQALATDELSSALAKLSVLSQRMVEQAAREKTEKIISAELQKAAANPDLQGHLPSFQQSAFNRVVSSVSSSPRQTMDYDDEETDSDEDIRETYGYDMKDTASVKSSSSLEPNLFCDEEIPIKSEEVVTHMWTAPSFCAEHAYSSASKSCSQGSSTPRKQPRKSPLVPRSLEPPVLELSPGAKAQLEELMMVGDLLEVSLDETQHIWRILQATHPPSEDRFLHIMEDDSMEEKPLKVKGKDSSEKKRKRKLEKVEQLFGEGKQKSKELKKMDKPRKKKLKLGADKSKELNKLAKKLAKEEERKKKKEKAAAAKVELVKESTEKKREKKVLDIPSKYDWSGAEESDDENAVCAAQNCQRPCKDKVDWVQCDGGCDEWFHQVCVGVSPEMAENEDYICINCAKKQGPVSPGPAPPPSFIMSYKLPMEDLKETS
Sequence of Histone deacetylase 1 (Homo sapiens) (Q13547 whole entry): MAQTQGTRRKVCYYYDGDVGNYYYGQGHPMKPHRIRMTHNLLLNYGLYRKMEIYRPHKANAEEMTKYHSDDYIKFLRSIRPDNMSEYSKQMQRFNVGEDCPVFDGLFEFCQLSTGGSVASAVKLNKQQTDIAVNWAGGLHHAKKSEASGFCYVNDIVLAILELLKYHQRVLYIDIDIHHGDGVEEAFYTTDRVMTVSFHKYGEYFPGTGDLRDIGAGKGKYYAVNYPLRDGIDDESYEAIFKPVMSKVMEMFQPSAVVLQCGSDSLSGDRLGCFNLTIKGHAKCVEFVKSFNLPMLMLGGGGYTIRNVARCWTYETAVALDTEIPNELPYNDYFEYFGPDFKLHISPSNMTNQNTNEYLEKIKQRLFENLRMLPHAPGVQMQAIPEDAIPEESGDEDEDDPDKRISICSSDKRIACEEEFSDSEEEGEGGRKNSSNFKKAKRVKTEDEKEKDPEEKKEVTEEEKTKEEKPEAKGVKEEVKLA
Sequence of Lysine-specific demethylase 6B (Homo sapiens) (O15054 whole entry): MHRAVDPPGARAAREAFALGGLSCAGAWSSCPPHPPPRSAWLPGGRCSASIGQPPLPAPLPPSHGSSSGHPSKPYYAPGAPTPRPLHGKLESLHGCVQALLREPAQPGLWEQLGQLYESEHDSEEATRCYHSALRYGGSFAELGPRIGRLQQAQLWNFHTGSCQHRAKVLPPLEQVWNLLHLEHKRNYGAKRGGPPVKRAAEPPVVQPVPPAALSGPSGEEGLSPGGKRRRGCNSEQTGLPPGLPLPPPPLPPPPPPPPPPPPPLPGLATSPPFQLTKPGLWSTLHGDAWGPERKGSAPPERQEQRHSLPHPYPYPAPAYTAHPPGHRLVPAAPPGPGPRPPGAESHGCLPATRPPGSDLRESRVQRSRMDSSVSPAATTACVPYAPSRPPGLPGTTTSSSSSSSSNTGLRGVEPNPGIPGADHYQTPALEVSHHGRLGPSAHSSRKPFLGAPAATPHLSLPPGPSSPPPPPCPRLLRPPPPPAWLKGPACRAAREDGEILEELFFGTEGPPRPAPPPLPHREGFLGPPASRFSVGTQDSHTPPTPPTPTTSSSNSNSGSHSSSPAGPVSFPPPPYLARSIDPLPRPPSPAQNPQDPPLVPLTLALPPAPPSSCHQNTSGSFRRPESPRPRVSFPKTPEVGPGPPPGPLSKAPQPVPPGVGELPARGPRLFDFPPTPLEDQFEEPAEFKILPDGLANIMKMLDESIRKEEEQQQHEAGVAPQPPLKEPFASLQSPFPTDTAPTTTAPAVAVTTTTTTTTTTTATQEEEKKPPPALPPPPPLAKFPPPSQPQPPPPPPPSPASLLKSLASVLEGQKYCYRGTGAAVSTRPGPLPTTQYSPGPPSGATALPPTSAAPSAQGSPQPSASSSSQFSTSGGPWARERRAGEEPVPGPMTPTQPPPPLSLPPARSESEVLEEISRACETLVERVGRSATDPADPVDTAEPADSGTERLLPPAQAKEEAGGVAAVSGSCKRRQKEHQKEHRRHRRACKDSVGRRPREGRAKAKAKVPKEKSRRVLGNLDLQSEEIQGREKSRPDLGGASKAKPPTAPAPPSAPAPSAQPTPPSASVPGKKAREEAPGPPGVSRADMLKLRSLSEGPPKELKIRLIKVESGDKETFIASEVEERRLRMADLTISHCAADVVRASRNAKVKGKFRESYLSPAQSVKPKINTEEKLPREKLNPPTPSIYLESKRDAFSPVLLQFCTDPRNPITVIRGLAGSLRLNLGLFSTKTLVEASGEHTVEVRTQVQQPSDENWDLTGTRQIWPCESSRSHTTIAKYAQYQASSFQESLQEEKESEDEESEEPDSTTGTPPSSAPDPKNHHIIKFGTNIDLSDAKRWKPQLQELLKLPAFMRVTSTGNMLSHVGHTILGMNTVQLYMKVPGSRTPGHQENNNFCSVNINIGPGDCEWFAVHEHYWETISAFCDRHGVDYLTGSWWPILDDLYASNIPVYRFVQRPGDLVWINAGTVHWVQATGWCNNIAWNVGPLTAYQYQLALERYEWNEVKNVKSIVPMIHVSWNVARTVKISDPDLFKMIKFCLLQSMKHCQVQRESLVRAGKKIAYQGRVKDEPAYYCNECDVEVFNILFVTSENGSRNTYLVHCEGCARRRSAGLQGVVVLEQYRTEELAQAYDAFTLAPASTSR

## O=C(O)CNC(=O)C(=O)O [N-OXALYLGLYCINE]
[1]
  IC50: 85 µM

## CC(=O)Nc1ccc(C(=O)O)cc1N
[2]
  inhibition: inactive

## CC(=O)Nc1cc(C(=O)O)ccc1O
[2]
  inhibition: Active

## O=CNc1ccc(C(=O)O)cc1O
[3]
  Ratio: 0.96
[4]
  Ratio: 1.01
[2]
  inhibition: 87%
[5]
  inhibition: 6%
[6]
  Activity: inactive
[7]
  inhibition: 97%
[8]
  inhibition: 44%
[9]
  Ratio: 0.93
[10]
  inhibition: 20%
[11]
  inhibition: 38%
[12]
  IC50: 46 µM

## O=CNc1cc(C(=O)O)ccc1O
[2]
  inhibition: 73%
[12]
  IC50: 48 µM

## CCCCCN(C)CCCCC(=O)N(O)CCC(=O)O
[12]
  IC50: 0.079 µM

## CC(=O)Nc1ccc(C(=O)O)cc1O
[2]
  inhibition: Active

## COC(=O)c1ccc(NC=O)c(O)c1
[3]
  Ratio: 2.15
[4]
  Ratio: 1.72
[13]
  fold change (FC): 1.7 to 2.2
[6]
  Activity: inactive
[14]
  inhibition: Dose-dependent effect
[9]
  Ratio: 1.31

Reference: ChEMBL document CHEMBL4392841, “Identification of ortho-hydroxy anilide as a novel scaffold for lysine demethylase 5 inhibitors” (Bioorg Med Chem Lett, 2019)
